In patent US20240368174A1, “Antiviral Heterocyclic Compounds” (Enanta Pharmaceuticals, Inc., priority 2023, published 2024) one finds EC50 data, which are given here for 34 compounds.

Assay [1] concerns HMPV clinical isolate A2 strain TN 94-49. The assay can be described thus: HMPV antiviral assay, Method 2 (LLC-MK2 cells with CP-100-356, ATP-Lite). The format is cell-based. Conditions: human metapneumovirus; hMPV A2 TN/94-49, LLC-MK2 cells with CP-100-356, Method 2. In outline: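 LLC-MK2 rhesus kidney cells (5,000/well) infected in suspension with HMPV A2 TN 94-49 at MOI 0.16, in serum-free medium with final 2 μg/mL TPCK-trypsin and 2 μM CP-100-356. Compounds tested in duplicate from 200 nM, 2.5-fold, 10 points; 7 days at 37 °C. Cell health by ATP-Lite luminescence; EC50 by four-parameter fit.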

For assay [2] the test system is unchanged. Put plainly: HMPV antiviral assay, Method 1 (LLC-MK2 cells, ATP-Lite). Conditions: human metapneumovirus, hMPV A2 TN/94-49, LLC-MK2 cells. Type of assay: cell-based. The method, boiled down:
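LLC-MK2 cells (5,000/well) infected in suspension with HMPV A2 TN 94-49 at MOI 0.005 in serum-free OptiMEM with 2 μg/mL final TPCK-trypsin, compounds in duplicate from 2 μM top, 2.5-fold, 10 points. After 7 days at 37° C, cell health by ATP-Lite luminescence normalised to virus and cell controls; EC50 from four-parameter fit.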

For the compound `COc1cc(C(=O)NC[C@@](O)(c2ccccc2)c2cc3c(c(-c4ccc(F)c(Cl)c4Cl)n2)OC[C@]3(C)C(N)=O)cc2cn(C3(F)CC3)nc12` [Example 259], the concentration for a half-maximal effect (EC50) in assay [1] is under 200 nM; in assay [2] it was under 500 nM.
On to `COc1cc(C(=O)NC[C@@](O)(c2ccccc2)c2cc3c(c(-c4cccc(Cl)c4Cl)n2)OC[C@]3(C)C(N)=O)cc2cn(C3CC3)nc12` [Example 260], for which the values for the EC50 in assay [1] and in assay [2] were under 200 nM and under 500 nM, respectively.
As to `COc1cc(C(=O)NC[C@@](O)(c2ccccc2)c2cc3c(c(-c4cccc(Cl)c4Cl)n2)OC[C@]3(C)C(N)=O)cc2cn(C3(F)CC3)nc12` [Example 262], the concentration for a half-maximal effect (EC50) is under 200 nM in assay [1] and under 500 nM in assay [2].
The like results for `COc1cc(C(=O)NC[C@@](O)(c2ccc(F)cc2)c2cc3c(c(-c4ccc5c(c4Cl)OC(F)(F)O5)n2)OC[C@]3(C)C(N)=O)cc2cn(C3(F)CC3)nc12` [Example 263] were, in that order, under 200 nM and under 500 nM.
The like results for `COc1cc(C(=O)NC[C@@](O)(c2ccc(F)cc2)c2cc3c(c(-c4ccc5c(c4Cl)OC(F)(F)O5)n2)OC[C@]3(C)C(N)=O)cc2cn(C(F)F)nc12` [Example 264] were, in that order, under 200 nM and under 500 nM.
The like results for `C[C@]1(C(N)=O)COc2c1cc([C@@](O)(CNC(=O)c1cc(OC3CC3)c3nn(C(F)F)cc3c1)c1ccc(F)cc1)nc2-c1ccc2c(c1Cl)OC(F)(F)O2` [Example 265] were, in that order, under 200 nM and under 500 nM.
Take `C[C@]1(C(N)=O)COc2c1cc([C@@](O)(CNC(=O)c1cc(OC3CC3)c3nn(C4(F)CC4)cc3c1)c1ccccc1)nc2-c1cccc(Cl)c1Cl` [Example 266]: the EC50 in assay [1] was under 200 nM; in assay [2], under 500 nM.
In the case of `COc1cc(C(=O)NC[C@@](O)(c2cccc(F)c2)c2cc3c(c(-c4ccc(F)c(Cl)c4Cl)n2)OC[C@]3(C)C(N)=O)cc2cn(C3(F)CC3)nc12` [Example 269], the half-maximal effective concentration (EC50) in assay [1] was under 200 nM; in assay [2] it was under 500 nM.
Turning to `COc1cc(C(=O)NC[C@@](O)(c2cccc(F)c2)c2cc3c(c(-c4ccc(F)c(Cl)c4Cl)n2)OC[C@]3(C)C(N)=O)cc2cn(C(F)F)nc12` [Example 270], the results for the EC50 in assay [1] and in assay [2] were under 200 nM and under 500 nM, respectively.
The like results for `Cc1nc2c(OC3CC3)cc(C(=O)NC[C@@](O)(c3ccccc3)c3cc4c(c(-c5ccc(F)c(Cl)c5Cl)n3)OC[C@]4(C)C(N)=O)cc2o1` [Example 271] were, in that order, under 200 nM and under 500 nM.
The like results for `COc1cc(C(=O)NC[C@@](O)(c2cccc(F)c2)c2cc3c(c(-c4ccc5c(c4Cl)OC(F)(F)O5)n2)OC[C@]3(C)C(N)=O)cc2cn(C3(F)CC3)nc12` [Example 275] were, in that order, under 200 nM and under 500 nM.
The like results for `COc1cc(C(=O)NC[C@@](O)(c2cccc(F)c2)c2cc3c(c(-c4ccc5c(c4Cl)OC(F)(F)O5)n2)OC[C@]3(C)C(N)=O)cc2cn(C(F)F)nc12` [Example 276] were, in that order, under 200 nM and under 500 nM.
On to `COc1cc(C(=O)NC[C@@](O)(c2ccccc2)c2cc3c(c(-c4ccc(F)c(Cl)c4Cl)n2)OC[C@]3(C)C(N)=O)cc2oc(C)nc12` [Example 277], for which the EC50 was under 200 nM in assay [1] and under 500 nM in assay [2].
Consider `COc1cc(C(=O)NC[C@@](O)(c2ccccc2)c2cc3c(c(-c4ccc(F)c(Cl)c4Cl)n2)OC[C@]3(C)C(N)=O)cc2oc(C3CC3)nc12` [Example 278], for which the half-maximal effective concentration (EC50) is under 200 nM in assay [1] and under 500 nM in assay [2].
The like results for `COc1cc(C(=O)NC[C@@](O)(c2cccc(F)c2)c2cc3c(c(-c4ccc(F)c(Cl)c4Cl)n2)OC[C@]3(C)C(N)=O)cc2oc(C3CC3)nc12` [Example 280] were, in that order, under 200 nM and under 500 nM.
The like results for `[2H]C([2H])([2H])c1nc2ccc(C(=O)NC[C@@](O)(c3cccc(F)c3)c3cc4c(c(-c5ccc(F)c(Cl)c5Cl)n3)OC[C@]4(C)C(N)=O)cc2o1` [Example 281] were, in that order, under 200 nM and under 500 nM.
The like results for `[2H]C([2H])([2H])c1nc2ccc(C(=O)NC[C@@](O)(c3cccc(F)c3)c3cc4c(c(-c5ccc6c(c5Cl)OC(F)(F)O6)n3)OC[C@]4(C)C(N)=O)cc2o1` [Example 282] were, in that order, under 200 nM and under 500 nM.
Take `C[C@]1(C(N)=O)COc2c1cc([C@@](O)(CNC(=O)c1ccc3nc(C4CC4)oc3c1)c1cccc(F)c1)nc2-c1ccc2c(c1Cl)OC(F)(F)O2` [Example 287]: the EC50 in assay [1] was under 200 nM; in assay [2], under 500 nM.
The like results for `COc1cc(C(=O)NC[C@@](O)(c2ccccc2)c2cc3c(c(-c4ccc(F)c(Cl)c4Cl)n2)OC[C@]3(C)C(N)=O)cc2cc(C)nnc12` [Example 289] were, in that order, under 200 nM and under 500 nM.
The like results for `COc1cc(C(=O)NC[C@@](O)(c2ccccc2)c2cc3c(c(-c4ccc(F)c(Cl)c4Cl)n2)OC[C@]3(C)C(N)=O)cc2cc(C3CC3)nnc12` [Example 290] were, in that order, under 200 nM and under 500 nM.
The like results for `COc1cc(C(=O)NC[C@@](O)(c2cccc(F)c2)c2cc3c(c(-c4cccc(Cl)c4Cl)n2)OC[C@]3(C)C(N)=O)cc2cn(C3(F)CC3)nc12` [Example 291] were, in that order, under 200 nM and under 500 nM.
`COc1cc(C(=O)NC[C@@](O)(c2cccc(F)c2)c2cc3c(c(-c4cccc(Cl)c4Cl)n2)OC[C@]3(C)C(N)=O)cc2oc(C3CC3)nc12` [Example 292]: the results for the EC50 in assay [1] and in assay [2] were under 200 nM and under 500 nM, respectively.
The like results for `COc1cc(C(=O)NC[C@@](O)(c2cccc(F)c2)c2cc3c(c(-c4cccc(Cl)c4Cl)n2)OC[C@]3(C)C(N)=O)cc2oc(C)nc12` [Example 293] were, in that order, under 200 nM and under 500 nM.
The like results for `COc1cc(C(=O)NC[C@@](O)(c2ccccc2)c2cc3c(c(-c4ccc(F)c(Cl)c4Cl)n2)OC[C@]3(C)C(N)=O)cc2cc(Cl)cnc12` [Example 294] were, in that order, under 200 nM and under 500 nM.
In the case of `COc1cc(C(=O)NC[C@@](O)(c2cccc(F)c2)c2cc3c(c(-c4cc(C(F)(F)F)c(F)cc4F)n2)OC[C@]3(C)C(N)=O)cc2cn(C3CC3)nc12` [Example 295], the EC50 was under 200 nM in assay [1] and under 500 nM in assay [2].
The like results for `COc1cc(C(=O)NC[C@@](O)(c2cccc(F)c2)c2cc3c(c(-c4cc(C(F)(F)F)c(F)cc4F)n2)OC[C@]3(C)C(N)=O)cc2cn(C3(F)CC3)nc12` [Example 296] were, in that order, under 200 nM and under 500 nM.
On to `COc1cc(C(=O)NC[C@@](O)(c2cccc(F)c2)c2cc3c(c(-c4cc(C(F)(F)F)c(F)cc4F)n2)OC[C@]3(C)C(N)=O)cc2oc(C3CC3)nc12` [Example 297], for which the EC50 in assay [1] was under 200 nM; in assay [2] it was under 500 nM.
The like results for `COc1cc(C(=O)NC[C@@](O)(c2ccccc2)c2cc3c(c(-c4cc(C(F)F)c(F)cc4F)n2)OC[C@]3(C)C(N)=O)cc2cn(C3(F)CC3)nc12` [Example 298] were, in that order, under 200 nM and under 500 nM.
The like results for `COc1cc(C(=O)NC[C@@](O)(c2ccccc2)c2cc3c(c(-c4cc(C(F)F)c(F)cc4F)n2)OC[C@]3(C)C(N)=O)cc2oc(C3CC3)nc12` [Example 299] were, in that order, under 200 nM and under 500 nM.
For `COc1cc(C(=O)NC[C@@](O)(c2ccccn2)c2cc3c(c(-c4cc(Cl)c(F)cc4F)n2)OC[C@]3(C)C(N)=O)cc2cn(C3CC3)nc12` [Example 463], the EC50 was under 200 nM in assay [1] and under 500 nM in assay [2].
Regarding `COc1cc(C(=O)NCC(O)(c2cc3c(c(-c4cc(Cl)c(F)cc4F)n2)OC[C@]3(C)C(N)=O)c2cc(C(F)F)cs2)cc2cn(C3CC3)nc12` (some centres unmarked) [Example 468], the values for the 50% effective concentration (EC50) in assay [1] and in assay [2] were under 200 nM and over 500 nM, respectively.
For the compound `COc1cc(C(=O)NCC(O)(c2cc3c(c(-c4cc(Cl)c(F)cc4F)n2)OC[C@]3(C)C(N)=O)c2ccc(C)s2)cc2cn(C3CC3)nc12` (some centres unmarked) [Example 470], the 50% effective concentration (EC50) was under 200 nM in assay [1] and under 500 nM in assay [2].
Take `COc1cc(C(=O)NC[C@](O)(c2cc3c(c(-c4cc(Cl)c(F)cc4F)n2)OC[C@]3(C)C(N)=O)c2cccs2)cc2cn(C3CC3)nc12` [Example 474]: the EC50 in assay [1] was under 200 nM; in assay [2], under 500 nM.
The like results for `COc1cc(C(=O)NC[C@](O)(c2cc3c(c(-c4cc(Cl)c(F)cc4F)n2)OC[C@]3(C)C(N)=O)c2nccs2)cc2cn(C3CC3)nc12` [Example 475] were, in that order, under 200 nM and under 500 nM.
